Patent US8748417B2, “Amino-pyrrolidine-azetidine diamides as monoacylglycerol lipase inhibitors” (Janssen Pharmaceutica, NV, priority 2010, dated 2014)
Substitutions are numbered along the chain they refer to. pIC50: −log10 of the molar value.

Experiments:
Format in all cases: biochemical
[1] = biological target: T1, purified mutant MGL (mut-MGLL 11-313 L179S L186S) (Homo sapiens, UniProt Q99685, L169S/L176S); assay: MGL enzyme activity assay (4MU-B cleavage), mutant MGL; details: mutant MGL 5 nM, 4MU-B 10 μM, 37° C.; read-out: MGL mutant inh IC50
T1 construct: purified mutant MGL (mut-MGLL 11-313 L179S L186S)
T1 sequence (Q99685 1-303 L169S/L176S): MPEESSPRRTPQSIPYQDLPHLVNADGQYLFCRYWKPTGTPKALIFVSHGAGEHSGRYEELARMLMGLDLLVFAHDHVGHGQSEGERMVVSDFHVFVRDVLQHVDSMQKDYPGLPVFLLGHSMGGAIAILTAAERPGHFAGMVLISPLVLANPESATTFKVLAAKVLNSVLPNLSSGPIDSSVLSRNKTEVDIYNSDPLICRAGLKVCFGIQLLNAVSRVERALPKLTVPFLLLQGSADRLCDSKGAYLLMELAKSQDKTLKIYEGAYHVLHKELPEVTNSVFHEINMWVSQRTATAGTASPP
Method: All rate-based assays were performed in black 384-well polypropylene PCR microplates (Abgene) in a total volume of 30 μL. Substrate 4-methylumbelliferyl butyrate (4MU-B; Sigma) and either purified mutant MGL (mut-MGLL 11-313 L179S L186S) or purified wild type MGL (wt-MGLL 6H-11-313) were diluted separately into 20 mM PIPES buffer (pH=7.0), containing 150 mM NaCl and 0.001% Tween 20. Compounds of Formula (I) were pre-dispensed (50 nL) into the assay plate using a Cartesian Hummingbird prior to adding 4MU-B (25 μL of 1.2× solution to a final concentration of 10 μM) followed by enzyme (5 μL of a 6× solution to a final concentration of 5 nM) to initiate the reaction. Final compound concentrations ranged from 17 to 0.0003 μM. The fluorescence change due to 4MU-B cleavage was monitored with excitation and emission wavelengths of 335 and 440 nm, respectively, and a bandwidth of 10 nm (Safire^2, Tecan) at 37° C. for 5 min.
The IC50 values for the following compounds were determined using Microsoft Office Excel from a fit of the equation to the concentration-response plot of the fractional activity as a function of inhibitor concentration.

[2] = tested on: MGL (rat brain homogenate); assay: 2-AG accumulation assay in rat brain homogenate; details: percent of vehicle 2-AG accumulation; for Rat Brain 2AG % VehCntrl (%) @10 μM: compound 10 μM; for Rat Brain 2AG % VehCntrl (%) @1 μM: compound 1 μM
Procedure, shortened: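 Rat brain homogenate was incubated with compound for 15 min at 37° C., after which CaCl2 was added to a final concentration of 10 mM and incubation continued for 15 min at 37° C. in 5 mL total. Reactions were stopped with 6 mL of 2:1 chloroform/methanol, and 2-AG accumulated in the organic phase was quantified by HPLC/MS.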

[3] = biological target: T2, purified wild type MGL (wt-MGLL 6H-11-313) (Homo sapiens, UniProt Q99685); assay: MGL enzyme activity assay (4MU-B cleavage), wild type MGL; details: wild type MGL 5 nM, 4MU-B 10 μM, 37° C.; read-out: MGL wild type inh IC50
T2 construct: purified wild type MGL (wt-MGLL 6H-11-313)
T2 sequence (Q99685 1-303): T1 sequence (Q99685 1-303 L169S/L176S) with S169L, S176L
Procedure, shortened: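 Enzyme in 20 mM PIPES pH 7.0, 150 mM NaCl, 0.001% Tween 20 with 4MU-B at 10 μM final and MGL at 5 nM final; compounds 17 to 0.0003 μM final, enzyme added last. Fluorescence (ex 335/em 440 nm) followed at 37° C for 5 min; IC50 from fit of fractional activity versus inhibitor concentration.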

SMILES	pIC50 [1]	Rat Brain 2AG % VehCntrl (%) @10 μM [2] [%]	Rat Brain 2AG % VehCntrl (%) @1 μM [2] [%]	pIC50 [3]
O=C(c1ccc(Cc2ccccc2)cc1)N1CC(N[C@H]2CCN(C(=O)c3nccs3)C2)C1 [Cpd 3, (3S)-N-{1-[(4-Benzylphenyl)carbonyl]azetidin-3-yl}-1-(1,3-thiazol-2-ylcarbonyl)pyrrolidin-3-amine]	7.66	844		
O=C(c1ccc(Cc2ccccc2)cc1)N1CC(N[C@H]2CCN(C(=O)c3ccccc3)C2)C1 [Cpd 4, (3S)-N-{1-[(4-Benzylphenyl)carbonyl]azetidin-3-yl}-1-(phenylcarbonyl)pyrrolidin-3-amine]	7.92	1033		
O=C(c1ccc(Cc2ccccc2)cc1)N1CC(N[C@H]2CCN(C(=O)c3ccsc3)C2)C1 [Cpd 5, (3S)-N-{1-[(4-Benzylphenyl)carbonyl]azetidin-3-yl}-1-(thiophen-3-ylcarbonyl)pyrrolidin-3-amine]	> 8.30	962		
CN(C1CN(C(=O)c2ccc(Cc3ccccc3)cc2)C1)[C@H]1CCN(C(=O)c2ccccc2)C1 [Cpd 14, (3S)-N-{1-[(4-Benzylphenyl)carbonyl]azetidin-3-yl}-N-methyl-1-(phenylcarbonyl) pyrrolidin-3-amine]	8.30		484	
O=C(c1ccc(-c2cc(Cl)cc(Cl)c2)cc1)N1CC(N[C@H]2CCN(C(=O)c3ccccc3)C2)C1 [Cpd 17, (3S)-N-{1-[(3′,5′-Dichlorobiphenyl-4-yl)carbonyl]azetidin-3-yl}-1-(phenylcarbonyl)pyrrolidin-3-amine]	7.39		441	
O=C(c1ccccc1)N1CC[C@H](NC2CN(C(=O)c3cc4ccc(C(F)(F)F)cc4s3)C2)C1 [Cpd 20, (3S)-1-(Phenylcarbonyl)-N-(1-{[6-(trifluoromethyl)-1-benzothiophen-2-yl]carbonyl}azetidin-3-yl)pyrrolidin-3-amine]	7.09		304	
O=C(c1ccccc1)N1CC[C@H](NC2CN(C(=O)c3sc4cc(Br)ccc4c3Cl)C2)C1 [Cpd 21, (3S)-N-{1-[(6-Bromo-3-chloro-1-benzothiophen-2-yl)carbonyl]azetidin-3-yl}-1-(phenylcarbonyl)pyrrolidin-3-amine]	8.30		596	
O=C(c1ccc2c(Br)cccc2c1)N1CC(N[C@H]2CCN(C(=O)c3ccccc3)C2)C1 [Cpd 22, (3S)-N-{1-[(5-Bromonaphthalen-2-yl)carbonyl]azetidin-3-yl}-1-(phenylcarbonyl)pyrrolidin-3-amine]	7.47		223	
O=C(c1ccc2c(-c3ccccc3)cccc2c1)N1CC(N[C@H]2CCN(C(=O)c3ccccc3)C2)C1 [Cpd 23, (3S)-1-(Phenylcarbonyl)-N-{1-[(5-phenylnaphthalen-2-yl)carbonyl]azetidin-3-yl}pyrrolidin-3-amine]	7.83		293	
O=C(c1ccc2c(-c3ccccc3C(F)(F)F)cccc2c1)N1CC(N[C@H]2CCN(C(=O)c3ccccc3)C2)C1 [Cpd 24, (3S)-1-(Phenylcarbonyl)-N-[1-({5-[2-(trifluoromethyl)phenyl]naphthalen-2-yl}carbonyl)azetidin-3-yl]pyrrolidin-3-amine]	8.07		706	
O=C(c1ccccc1)N1CC[C@H](NC2CN(C(=O)c3cc4ccc(-c5ccc(C(F)(F)F)cc5)cc4s3)C2)C1 [Cpd 43, (3S)-1-(Phenylcarbonyl)-N-[1-({6-[4-(trifluoromethyl)phenyl]-1-benzothiophen-2-yl}carbonyl)azetidin-3-yl]pyrrolidin-3-amine]	6.57			
O=C(c1ccc(-c2ccccc2)cc1)N1CC(N[C@H]2CCN(C(=O)c3ccc(F)cc3)C2)C1 [Cpd 45, (3S)-N-[1-(Biphenyl-4-ylcarbonyl)azetidin-3-yl]-1-[(4-fluorophenyl)carbonyl]pyrrolidin-3-amine]	5.79			
O=C(c1ccc(-c2ccccc2)cc1)N1CC(N[C@H]2CCN(C(=O)c3cccc(F)c3)C2)C1 [Cpd 46, (3S)-N-[1-(Biphenyl-4-ylcarbonyl)azetidin-3-yl]-1-[(3-fluorophenyl)carbonyl]pyrrolidin-3-amine]	6.47			
O=C(c1ccc(-c2ccccc2)cc1)N1CC(N[C@H]2CCN(C(=O)c3cc4ccccc4o3)C2)C1 [Cpd 47, (3S)-1-(1-Benzofuran-2-ylcarbonyl)-N-[1-(biphenyl-4-ylcarbonyl)azetidin-3-yl]pyrrolidin-3-amine]	4.96			
O=C(c1ccc(-c2ccccc2)cc1)N1CC(N[C@H]2CCN(C(=O)c3cc4ccccc4s3)C2)C1 [Cpd 48, (3S)-1-(1-Benzothiophen-2-ylcarbonyl)-N-[1-(biphenyl-4-ylcarbonyl)azetidin-3-yl]pyrrolidin-3-amine]	5.05			
O=C(c1ccccc1)N1CC[C@H](NC2CN(C(=O)c3cc4cc(Br)ccc4s3)C2)C1 [Cpd 49, (3S)-N-{1-[(5-Bromo-1-benzothiophen-2-yl)carbonyl]azetidin-3-yl}-1-(phenylcarbonyl)pyrrolidin-3-amine]	6.45			6.32
O=C(c1ccccc1)N1CC[C@H](NC2CN(C(=O)c3cc4cc(-c5cccc(C(F)(F)F)c5)ccc4s3)C2)C1 [Cpd 51, (3S)-1-(Phenylcarbonyl)-N-[1-({5-[3-(trifluoromethyl)phenyl]-1-benzothiophen-2-yl}carbonyl)azetidin-3-yl]pyrrolidin-3-amine]	6.64			> 8.30
O=C(c1ccccc1)N1CC[C@H](NC2CN(C(=O)c3cc4cc(-c5ccc(C(F)(F)F)cc5)ccc4s3)C2)C1 [Cpd 52, (3S)-1-(Phenylcarbonyl)-N-[1-({5-[4-(trifluoromethyl)phenyl]-1-benzothiophen-2-yl}carbonyl)azetidin-3-yl]pyrrolidin-3-amine]	6.65			8.18
O=C(c1ccc(-c2ccccc2)cc1)N1CC(NC2CN(C(=O)c3ccccc3)CC2F)C1 (centres unmarked) [Cpd 58, N-[1-(Biphenyl-4-ylcarbonyl)azetidin-3-yl]-4-fluoro-1-(phenylcarbonyl)pyrrolidin-3-amine]	7.48			6.33
O=C(c1ccc(-c2ccccc2)cc1)N1CC(N[C@@H]2CN(C(=O)c3ccccc3)CC2F)C1 (stereo partly drawn) [Cpd 60, (3R)-N-[1-(Biphenyl-4-ylcarbonyl)azetidin-3-yl]-4-fluoro-1-(phenylcarbonyl)pyrrolidin-3-amine]	< 4.78			
O=C(c1ccccc1)N1CC[C@H](NC2CN(C(=O)c3sc4ccccc4c3-c3ccccc3)C2)C1 [Cpd 65, (3S)-N-{1-[(3-Phenyl-1-benzothiophen-2-yl)carbonyl]azetidin-3-yl}-1-(phenylcarbonyl)pyrrolidin-3-amine]	6.99			
O=C(c1ccccc1)N1CC[C@H](NC2CN(C(=O)c3sc4ccccc4c3C3CC3)C2)C1 [Cpd 66, (3S)-N-{1-[(3-Cyclopropyl-1-benzothiophen-2-yl)carbonyl]azetidin-3-yl}-1-(phenylcarbonyl)pyrrolidin-3-amine]	6.67			
O=C(c1ccccc1)N1CCC(NC2CN(C(=O)c3ccc(C(F)c4ccc(C(F)(F)F)cc4)cc3)C2)C1 (centres unmarked) [Cpd 69, N-{1-[(4-{Fluoro[4-(trifluoromethyl)phenyl]methyl}phenyl)carbonyl]azetidin-3-yl}-1-(phenylcarbonyl)pyrrolidin-3-amine]	6.70			
COC1CN(C(=O)c2ccccc2)CC1NC1CN(C(=O)c2ccc(-c3cccc(C(F)(F)F)c3)cc2)C1 (stereo not drawn) [Cpd 71, trans--4-Methoxy-1-(phenylcarbonyl)-N-(1-{[3′-(trifluoromethyl)biphenyl-4-yl]carbonyl}azetidin-3-yl)pyrrolidin-3-amine]	5.25			
